Earlier results in patent US20240173254A1, “TASIPIMIDINE FORMULATIONS AND USE THEREOF” (ORION CORPORATION, priority 2021, published 2024).

How the values were obtained:
[1] = in vivo

COc1cccc2c1CCOC2C1=NCCN1 (centres unmarked) [tasipimidine, 2-(5-methoxyisochroman-1-yl)-4,5-dihydro-1H-imidazole]
relieving situational anxiety and fear triggered by noise or owner departure (dogs): effective
elimination half-life (t1/2) compared with clonidine [1]: shorter elimination half-life (t1/2) than clonidine
